# In PubChem BioAssay AID2060614 (Molecular Pharmacology Branch, DTP, NCI, 2025):
# Tested on: 598228-144-R-J1-PDC complex spheroids, viability
# Assay: Anticancer human tumor 598228-144-R-J1-PDC patient-derived serous endometrial adenocarcinoma cell line growth inhibition [CLK]
# Details: for IC50: curve of first compound; for viability, T/C: stronger effect = lower value
# Summary of the method: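 Patient-derived tumor cells grown as complex spheroids with HUVEC endothelial cells and mesenchymal stem cells, treated with drug combinations. Concentrations descend in half-log steps from near clinical Cmax, or from 10 microM if Cmax unknown.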
# 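Also: spheroids exposed to compounds for seven days before readout.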
# 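For viability, T/C in this document: 100% = DMSO vehicle control wells.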
smiles,measurement,setting,value
CC(C)CC(NC(=O)C(Cc1ccccc1)NC(=O)c1cnccn1)B(O)O (centres undefined) + CN1CCN(c2cc(C(=O)Nc3cc4cc(-c5cnn(C)c5)ccc4cn3)ccn2)CC1,IC50,second compound 0.0316 µM,4.12 nM
same,IC50,second compound 0.1 µM,2.54 nM
same,IC50,second compound 0.316 µM,< 0.949 nM
same,IC50,second compound 1 µM,< 0.949 nM
same,IC50,second compound 3.16 µM,< 0.949 nM
same,IC50,second compound 10 µM,< 0.949 nM
same,"viability, T/C","second compound 0.0316 µM, first compound 0.000949 µM",124%
same,"viability, T/C","second compound 0.0316 µM, first compound 0.003 µM",68.6%
same,"viability, T/C","second compound 0.0316 µM, first compound 0.00949 µM",0.89%
same,"viability, T/C","second compound 0.0316 µM, first compound 0.03 µM",0.39%
same,"viability, T/C","second compound 0.0316 µM, first compound 0.0949 µM",0.34%
same,"viability, T/C","second compound 0.0316 µM, first compound 0.3 µM",0.29%
same,"viability, T/C","second compound 0.1 µM, first compound 0.000949 µM",137%
same,"viability, T/C","second compound 0.1 µM, first compound 0.003 µM",35.3%
same,"viability, T/C","second compound 0.1 µM, first compound 0.00949 µM",0.57%
same,"viability, T/C","second compound 0.1 µM, first compound 0.03 µM",0.37%
same,"viability, T/C","second compound 0.1 µM, first compound 0.0949 µM",0.35%
same,"viability, T/C","second compound 0.1 µM, first compound 0.3 µM",2.83%
same,"viability, T/C","second compound 0.316 µM, first compound 0.000949 µM",19.9%
same,"viability, T/C","second compound 0.316 µM, first compound 0.003 µM",2.9%
same,"viability, T/C","second compound 0.316 µM, first compound 0.00949 µM",0.32%
same,"viability, T/C","second compound 0.316 µM, first compound 0.03 µM",0.26%
same,"viability, T/C","second compound 0.316 µM, first compound 0.0949 µM",0.88%
same,"viability, T/C","second compound 0.316 µM, first compound 0.3 µM",6.75%
same,"viability, T/C","second compound 1 µM, first compound 0.000949 µM",0.79%
same,"viability, T/C","second compound 1 µM, first compound 0.003 µM",0.61%
same,"viability, T/C","second compound 1 µM, first compound 0.00949 µM",0.36%
same,"viability, T/C","second compound 1 µM, first compound 0.03 µM",0.23%
same,"viability, T/C","second compound 1 µM, first compound 0.0949 µM",1.86%
same,"viability, T/C","second compound 1 µM, first compound 0.3 µM",4.83%
same,"viability, T/C","second compound 3.16 µM, first compound 0.000949 µM",1.18%
same,"viability, T/C","second compound 3.16 µM, first compound 0.003 µM",1.87%
same,"viability, T/C","second compound 3.16 µM, first compound 0.00949 µM",0.3%
same,"viability, T/C","second compound 3.16 µM, first compound 0.03 µM",0.21%
same,"viability, T/C","second compound 3.16 µM, first compound 0.0949 µM",1.26%
same,"viability, T/C","second compound 3.16 µM, first compound 0.3 µM",2.5%
same,"viability, T/C","second compound 10 µM, first compound 0.000949 µM",0.91%
same,"viability, T/C","second compound 10 µM, first compound 0.003 µM",2.49%
same,"viability, T/C","second compound 10 µM, first compound 0.00949 µM",0.22%
same,"viability, T/C","second compound 10 µM, first compound 0.03 µM",0.2%
same,"viability, T/C","second compound 10 µM, first compound 0.0949 µM",3.91%
same,"viability, T/C","second compound 10 µM, first compound 0.3 µM",3.86%
CC1(C)CCC(CN2CCN(c3ccc(C(=O)NS(=O)(=O)c4ccc(NCC5CCOCC5)c([N+](=O)[O-])c4)c(Oc4cnc5[nH]ccc5c4)c3)CC2)=C(c2ccc(Cl)cc2)C1 + CN1CCN(c2cc(C(=O)Nc3cc4cc(-c5cnn(C)c5)ccc4cn3)ccn2)CC1,IC50,second compound 0.0316 µM,7680 nM
same,IC50,second compound 0.1 µM,7690 nM
same,IC50,second compound 0.316 µM,< 31.6 nM
same,IC50,second compound 1 µM,< 31.6 nM
same,IC50,second compound 3.16 µM,< 31.6 nM
same,IC50,second compound 10 µM,< 31.6 nM
same,"viability, T/C","second compound 0.0316 µM, first compound 0.0316 µM",138%
same,"viability, T/C","second compound 0.0316 µM, first compound 0.1 µM",113%
same,"viability, T/C","second compound 0.0316 µM, first compound 0.316 µM",111%
same,"viability, T/C","second compound 0.0316 µM, first compound 1 µM",118%
same,"viability, T/C","second compound 0.0316 µM, first compound 3.16 µM",114%
same,"viability, T/C","second compound 0.0316 µM, first compound 10 µM",30.9%
same,"viability, T/C","second compound 0.1 µM, first compound 0.0316 µM",116%
same,"viability, T/C","second compound 0.1 µM, first compound 0.1 µM",121%
same,"viability, T/C","second compound 0.1 µM, first compound 0.316 µM",116%
same,"viability, T/C","second compound 0.1 µM, first compound 1 µM",124%
same,"viability, T/C","second compound 0.1 µM, first compound 3.16 µM",113%
same,"viability, T/C","second compound 0.1 µM, first compound 10 µM",31%
same,"viability, T/C","second compound 0.316 µM, first compound 0.0316 µM",19.3%
same,"viability, T/C","second compound 0.316 µM, first compound 0.1 µM",16.8%
same,"viability, T/C","second compound 0.316 µM, first compound 0.316 µM",14.4%
same,"viability, T/C","second compound 0.316 µM, first compound 1 µM",15.5%
same,"viability, T/C","second compound 0.316 µM, first compound 3.16 µM",11.9%
same,"viability, T/C","second compound 0.316 µM, first compound 10 µM",7.07%
same,"viability, T/C","second compound 1 µM, first compound 0.0316 µM",1.25%
same,"viability, T/C","second compound 1 µM, first compound 0.1 µM",1.59%
same,"viability, T/C","second compound 1 µM, first compound 0.316 µM",2.76%
same,"viability, T/C","second compound 1 µM, first compound 1 µM",1.46%
same,"viability, T/C","second compound 1 µM, first compound 3.16 µM",2.58%
same,"viability, T/C","second compound 1 µM, first compound 10 µM",1.73%
same,"viability, T/C","second compound 3.16 µM, first compound 0.0316 µM",1.65%
same,"viability, T/C","second compound 3.16 µM, first compound 0.1 µM",3.1%
same,"viability, T/C","second compound 3.16 µM, first compound 0.316 µM",1.66%
same,"viability, T/C","second compound 3.16 µM, first compound 1 µM",1.86%
same,"viability, T/C","second compound 3.16 µM, first compound 3.16 µM",3.99%
same,"viability, T/C","second compound 3.16 µM, first compound 10 µM",4.73%
same,"viability, T/C","second compound 10 µM, first compound 0.0316 µM",0.92%
same,"viability, T/C","second compound 10 µM, first compound 0.1 µM",2.13%
same,"viability, T/C","second compound 10 µM, first compound 0.316 µM",0.62%
same,"viability, T/C","second compound 10 µM, first compound 1 µM",0.79%
same,"viability, T/C","second compound 10 µM, first compound 3.16 µM",2.58%
same,"viability, T/C","second compound 10 µM, first compound 10 µM",3.9%
